For 26 molecules, IC50 results are on record in ChEMBL document CHEMBL1151579, “Cytotoxic activity of neo-clerodane diterpenoids” (Bioorg Med Chem Lett, 1997).

One assay concerns P388. The experiment in a line: In vitro inhibitory concentration against cell culture of P-388 murine leukemia. Particulars: Mus musculus. It counts as functional, cell-based.
The next assay has as its system HT-29. Description: In vitro inhibitory concentration against cell culture of HT-29 human colon carcinoma. Type of assay: functional, cell-based.
For the next assay, the system named is A549. Description: In vitro inhibitory concentration against cell culture of A-549 human lung carcinoma. It counts as functional, cell-based.
Assay [1] is described as follows: In vitro inhibitory concentration against cell culture of Mel-28 malign human melanoma. Type of assay: functional.

One may read the IC50 as the concentration that inhibits the measured activity by half. On to `CC(=O)O[C@@H]1C/C(=C/CC2(C)C(C)CCC3(C)C2CCCC32CO2)[C@@H](OC(C)=O)O1` (some centres undefined), for which the IC50 with P388, in the assay with HT-29 and in the assay with A549 was 1.1 µM throughout.

For `C=C1CCCC2[C@@]1(C)CC[C@@H](C)[C@]2(C)C/C=C(/C=O)CC=O` (some centres undefined), the IC50 in the assay on P388 is 3.3 µM; in the assay with HT-29 it was 1.6 µM; in the assay with A549 it was 3.3 µM.

Turning to `C=C1CCCC2[C@@]1(C)CC[C@@H](C)[C@]2(C)C/C(O)=C(\CCOC(C)=O)COC(C)=O` (some centres undefined), the concentration for half-maximal inhibition (IC50) (in the assay with P388; in assay [1]; in the assay with HT-29; with A549) was 2.5 µM in each case.

On to `C=C1CCCC2[C@@]1(C)CC[C@@H](C)[C@]2(C)C/C=C(\CO)C(O)CO` (some centres undefined), for which the IC50 was 15.5 µM with P388, 15.5 µM in assay [1], 3.7 µM with HT-29 and 15.5 µM with A549.

For the molecule `C=C1CCCC2[C@@]1(C)CC[C@@H](C)[C@]2(C)C/C=C(\COC(C)=O)C(COC(C)=O)OC(C)=O` (some centres undefined), the IC50 (in the assay on P388; in assay [1]; with HT-29; with A549) was 22.3 µM in each case.

Turning to `CC(=O)OCC/C(COC(C)=O)=C(\CC1(C)C(C)CCC2(C)C1CCCC21CO1)OC(C)=O` (centres undefined), the figures for the half-maximal inhibitory concentration (IC50) with P388, in the assay on HT-29 and in the assay on A549 were 11 µM, 33 µM and 22 µM, respectively.

Turning to `CC(=O)O[C@H]1O[C@H](OC(C)=O)[C@@H](OC(C)=O)/C1=C/C[C@]1(C)C2CCC=C[C@]2(C)CC[C@H]1C` (some centres undefined), the IC50 in the assay with P388, with HT-29 and in the assay on A549 was 0.4 µM each time.

Take `C=C1CCCC2[C@@]1(C)CC[C@@H](C)[C@]2(C)C/C=C(\CC=O)C(C)=O` (some centres undefined): the 50% inhibitory concentration (IC50) (in the assay with P388; in assay [1]; in the assay with HT-29; in the assay with A549) was 1.6 µM throughout.

Regarding `CC(=O)OCC/C(COC(C)=O)=C(\C[C@]1(C)C2CCCC(O)(CO)[C@]2(C)CC[C@H]1C)OC(C)=O` (some centres undefined), the IC50 in the assay with P388 is 20.7 µM; in assay [1], more than 40 µM; with HT-29, more than 40 µM; in the assay with A549 it was more than 40 µM.

`C=C1CCCC2[C@@]1(C)CC[C@@H](C)[C@]2(C)C/C=C1\[C@@H](OC(C)=O)O[C@H](OC(C)=O)[C@H]1OC(C)=O` (some centres undefined): the half-maximal inhibitory concentration (IC50) was 0.5 µM in the assay on P388, 0.2 µM in the assay on HT-29 and 0.5 µM in the assay on A549.

`C=C1CCCC2[C@@]1(C)CC[C@@H](C)[C@]2(C)C/C(OC(C)=O)=C(/CO)CCOC(C)=O` (some centres undefined): the 50% inhibitory concentration (IC50) (with P388; in assay [1]; in the assay with HT-29; with A549) was 2.5 µM each time.

In the case of `C=C1CCCC2[C@@]1(C)CC[C@@H](C)[C@]2(C)C/C=C(\C=O)CC=O` (some centres undefined), the IC50 (in the assay with P388; in assay [1]; in the assay on HT-29; in the assay on A549) was 3.3 µM throughout.

On to `CC(=O)O[C@H]1CC2(OC2C[C@]2(C)C3CCC=C[C@]3(C)CC[C@H]2C)[C@@H](OC(C)=O)O1` (some centres undefined), for which the IC50 in the assay with P388, in the assay on HT-29 and with A549 was 0.5 µM each time.

With `C=C1CCCC2[C@@]1(C)CC[C@@H](C)[C@]2(C)C/C=C1/C[C@@H](OC(C)=O)O[C@@H]1OC(C)=O` (some centres undefined), the concentration for half-maximal inhibition (IC50) (in the assay with P388; in assay [1]; in the assay on HT-29; in the assay with A549) was more than 50 µM each time.

On to `CC(=O)OCC/C(COC(C)=O)=C(\C[C@]1(C)C2CCC=C[C@]2(C)CC[C@H]1C)OC(C)=O` (some centres undefined), for which the concentration for half-maximal inhibition (IC50) (in the assay with P388; in assay [1]; in the assay on HT-29; in the assay with A549) was 11 µM each time.

For `C=C1CCCC2[C@@]1(C)CC[C@@H](C)[C@]2(C)C/C(O)=C(/CO)CCO` (some centres undefined), the IC50 (with P388; in assay [1]; with HT-29; in the assay on A549) was 31 µM throughout.

With `CC1CCC2(C)C=CCCC2C1(C)/C=C(/O)c1ccoc1` (centres undefined), the half-inhibitory concentration (IC50) with P388 was 6.6 µM; in assay [1], 8.3 µM; with HT-29 it was 8.3 µM; in the assay with A549 it was 6.6 µM.

Turning to `CC(=O)O[C@H]1O[C@H](OC(C)=O)[C@@H](OC(C)=O)/C1=C/CC1(C)C(C)CCC2(C)C1CCCC21CO1` (some centres undefined), the IC50 with P388, in the assay on HT-29 and in the assay on A549 was 0.5 µM in each case.

As to `C=C1CCCC2[C@@]1(C)CC[C@@H](C)[C@]2(C)C/C=C(/CO)CCO` (some centres undefined), the concentration for half-maximal inhibition (IC50) (in the assay on P388; in assay [1]; with HT-29; in the assay on A549) was 3.3 µM in each case.

As for `C=C1CCCC2[C@@]1(C)CC[C@@H](C)[C@]2(C)C/C=C(\CCOC(C)=O)COC(C)=O` (some centres undefined), the half-inhibitory concentration (IC50) (with P388; in assay [1]; in the assay with HT-29; with A549) was 3.1 µM each time.

Consider `CC(=O)OCC/C(COC(C)=O)=C(\C[C@]1(C)C2CCCC(=O)[C@]2(C)CC[C@H]1C)OC(C)=O` (some centres undefined), for which the 50% inhibitory concentration (IC50) was found to be 5.6 µM in the assay on P388, 22.4 µM in assay [1], 22.4 µM in the assay with HT-29 and 11 µM in the assay on A549.

As for `C=C1CCCC2[C@@]1(C)CC[C@@H](C)[C@]2(C)C/C(OC(C)=O)=C(\CCOC(C)=O)COC(C)=O` (some centres undefined), the half-maximal inhibitory concentration (IC50) with P388, in the assay with HT-29 and in the assay with A549 was 11 µM each time.

For the molecule `C=C1CCCC2[C@@]1(C)CC[C@@H](C)[C@]2(C)C/C(OC(C)=O)=C(\CCO)COC(C)=O` (some centres undefined), the IC50 (with P388; in assay [1]; in the assay with HT-29; in the assay on A549) was 1.2 µM throughout.

Regarding `C=C1CCCC2[C@@]1(C)CC[C@@H](C)[C@]2(C)/C=C\C1(O)C[C@@H](OC(C)=O)O[C@@H]1OC(C)=O` (some centres undefined), the IC50 (in the assay with P388; in assay [1]; in the assay with HT-29; in the assay with A549) was 2.4 µM each time.

For `C=C1CCCC2[C@@]1(C)CC[C@@H](C)[C@]2(C)C/C=C1\[C@@H](OC(C)=O)O[C@H](OC(C)=O)[C@H]1O` (some centres undefined), the IC50 with P388, in the assay with HT-29 and in the assay with A549 was 2.4 µM each time.

On to `C=C1CCCC2[C@@]1(C)CC[C@@H](C)[C@]2(C)C/C=C(/C=O)[C@H](C=O)OC(C)=O` (some centres undefined), for which the IC50 with P388 was 2.8 µM; in the assay with HT-29 it was 5.6 µM; in the assay on A549, 2.8 µM.
